Assay: Dissociation constant was reported
Type: physicochemical

pKa: 9.1
Structure (SMILES): CN(C)CCN1c2ccccc2Sc2ccc(Cl)cc21 [CHOLRPHENETHAZINE]
